From article PMC10721329, “Quisinostat is a brain-penetrant radiosensitizer in glioblastoma” (JCI Insight, 2023) come the findings set out here.

Several values for one entry are separate records, joined by “and”; a condition that tells them apart may be missing. Equal values may be shown once. Read-outs that look alike come from different tables or passages of the source.

One data set concerns BT145 cells. Kind of data set: Cell cycle analysis, propidium iodide flow cytometry. It is filed as cell-based, human. As to the method:
For cell cycle analysis following short -term DMSO or QST treatment in GSC cultures, approximately 1 million cells were harvested, washed in cold 1× PBS once, and fixed with 3–4 mL of ice cold 70% ethanol, added dropwise while vortexing. Cells were fixed on ice for 30 minutes and washed twice with 1× PBS. Cells were then resuspended in 500 μL of propidium iodide/RNAse staining buffer (BD Biosciences, 550825) for 15 minutes at room temperature before analysis. Data from all the samples were obtained using a Fortessa flow cytometer (BD Biosciences) and analyzed using the FlowJo software (TreeStar). Cell cycle analysis was performed in triplicate for all cell lines.

Data set [1] is described as follows: Total and unbound QST in plasma and normal brain of non-tumor-bearing mice (equilibrium dialysis, LC-MS/MS). It is filed as in vivo, athymic nude mice. As for the experimental part:
Insufficient drug exposure in the brain is a major hurdle in the treatment of brain tumors. […] On the last treatment day, blood and intact brains were harvested 2 hours after dosing with QST (Figure 6E). […] Each brain hemisphere was processed separately to perform matched PK and PD analyses from the same animal. […] For PD analyses, we homogenized entire hemispheres to obtain whole-tissue protein lysates from each mouse and assessed changes in histone H3 acetylation levels using immunoblotting.
Our study therefore emphasizes the importance of implementing a PK-PD–guided approach when evaluating or developing new drugs for GBM. Although PK analyses are now commonly performed in preclinical trials for a variety of different brain tumors, these studies typically measure only the total brain-to-plasma concentration ratio as a measure of drug-brain penetration ([74]–[76]). […] Therefore, we employed an equilibrium dialysis method combined with LC-MS/MS analysis to measure the unbound brain-to-plasma concentration, which represents the pharmacologically active fraction of a drug. A crucial finding in our study was the species-specific differences in QST stability. […] A recent study reported that hydroxamic acids such as QST are common substrates of a family of esterases (carboxylesterases) that are abundantly present in rodent plasma but absent in human plasma ([34], [78]). We confirmed that the addition of BNPP, a specific inhibitor of carboxylesterases, stabilized QST in mouse plasma. Our results therefore highlight a large discrepancy in the metabolic stability between rodent and human species. This is an important consideration for translating preclinical studies to the clinic because such differences may hinder further clinical development of promising drug candidates. Our data will thereby serve as a valuable resource and note of caution for future preclinical studies employing QST or similar drugs with species-specific stability.
QST concentrations in specimens were measured using reverse-phase LC on the AB SCIEX QTRAP6500+ LC-MS/MS system by operating electrospray in the positive ion mode. For liquid chromatographic separation, gradient elution was performed using a Phenomenex Kinetex F5 100 Å column (100 × 2.1 mm, 2.6 μm). The initial composition of the mobile phase was 70% phase A (0.1% formic acid in water) and 30% phase B (0.1% formic acid in 1:1 acetonitrile/methanol) with a 0.35 mL/min flow rate. Gradient elution was achieved as follows: mobile phase (B) was maintained at 30% from 0 to 0.3 minutes, increased to 95% from 0.3 to 0.8 minutes, maintained at 95% from 0.8 to 2.5 minutes, and decreased to 30% from 2.5 to 2.8 minutes. The total run time was 3.5 minutes. The internal standard used in this study was D8-infigratinib. The retention times for QST and D8-infigratinib were 1.6 and 1.8 minutes, respectively. Mass-to-charge ratio transitions were as follows: 395.20 → 144.00 (QST) and 568.08 → 321.00 (D8-infigratinib). LC-MS/MS analysis was performed using an Analyst 1.7 Chromatographic Data System. See Supplemental Methods for detailed PK experiments. […]
vortex-mixed for 10 s and centrifuged at 12000 g at 4 °C for 10 min. A 100-µL aliquot of the supernatant was transferred to an autosampler vial, and 5 µL was injected into the LC-MS/MS system for analysis. Whenever necessary, appropriate dilutions were made to accommodate the analysis of small volume samples.
Brain and Brain Tumor Sample Preparation
Normal brain and brain tumor tissue homogenates were prepared by 1:4 (mass/volume) ratio with PBS. Samples were homogenized under 6.00 m/s speed for 40 seconds with 3 cycles by Bead Ruptor Elite homogenizer (Omni International). Plasma was used as a surrogate matrix for brain/tumor homogenate. Brain homogenate samples from in vivo studies were prepared as described for plasma samples. Analyte and IS were extracted by protein precipitation with methanol containing IS. After centrifugation at 12000 rpm for 10 minutes at 4 °C, 5 µL of […]

Data set [2] is described as follows: Body weight / tolerability in flank tumor study. In kind it is in vivo. Conditions: for weight of flank tumor mice: individual mice. Further details: weight of flank tumor mice: unit not given here. As for the experimental part: We next examined whether QST treatment alone or in combination with IR would be effective in slowing tumor growth in a flank model of GBM (U87). Tumor-bearing mice receiving IR were treated with 2-Gy fractions on Monday, Wednesday, and Friday (MWF) 2 hours after dosing with either vehicle solution or QST (10 mg/kg), for a total dose of 6 Gy. Following completion of IR, mice continued to receive vehicle or QST until the tumors reached the maximum volume threshold (Figure 5C). […] The mean tumor volume in mice with combination treatment was approximately 4.5-fold less than that in vehicle-treated mice at study completion (Figure 5D). […]
treated with 2 Gy of ionizing radiation on MWF for a total 6 Gy (3 doses). Ionizing radiation was administered with the RS2000 series biological research irradiator (Rad Source Technologies).
Treatment of Flank-Implanted Mice with QST and/or Radiation
Implanted flank tumors were allowed to grow until the tumor size reached 100 mm3 volume. Mice were randomized into groups before treatment and underwent treatment on MWF for the entire duration of the experiment until the tumor volumes exceeded 2000 mm3. Treatment groups included vehicle (50% PEG-300), QST alone (10 mg/kg), flank IR treatment with vehicle (2 Gy), and flank IR treatment (2 Gy) with QST (10 mg/kg). For mice receiving IR treatment with or without QST, mice were treated with 2 Gy on MWF for a total 6 Gy during the first week of treatment. QST was administered to mice through intraperitoneal injections 2 hours before flank tumor radiation treatment. Upon completion of the radiation regimen, IR-treated mice subsequently received QST or vehicle alone for the rest of the experiment. Tumor growth and treatment response were monitored by manually measuring the tumor area twice per week starting at 13 days after implantation. Upon reaching the tumor volume threshold (2000 mm3), mice were sacrificed, and plasma and tissue samples were harvested for PD and PK analyses 2 hours after treatment with a final dose of QST (10 mg/kg). […]

[3] abbreviates: QST at IC50, 24 hours, replicates.
[4] abbreviates: normal mice, individual mice, n=6.

Consider `Cn1cc(CNCC2CCN(c3ncc(C(=O)NO)cn3)CC2)c2ccccc21` [QST, quisinostat], for which, in the data set with BT145 cells (setting [3]), the “Cell Cycle Phase (% of cells), G1” value is 33.6% and 37% and 36.8%. In addition, in the data set on BT145 cells (setting [3]), the “Cell Cycle Phase (% of cells), G2” value was 48.8% and 41.5% and 48%. Further, in the data set on BT145 cells (setting [3]), the “Cell Cycle Phase (% of cells), S” value is 16.4% and 20.3% and 13.8%. Also, the “Mean proportion of cells in G1” value in the data set on BT145 cells (QST, 24 hours) is 36%. For the same compound, in the data set on BT145 cells (QST, 24 hours), the “Mean proportion of cells in G2” value turned out to be 46%. Besides, in the data set on BT145 cells (QST, 24 hours), the “Mean proportion of cells in S” value is 17%. The “mean unbound QST level, fold lower in brain than in plasma” value in data set [1] (10 mg/kg IP MWF 2 weeks, 2 hours after last dose) is given as “more than 70 fold”. Also, the concentration at 2 h is 45.3 nM in data set [1] (athymic nude, mouse, brain, intraperitoneal, 10 mg/kg, normal mouse brains, individual mice, n=6, read-out: Total QST, brain); 1.65 nM in data set [1] (athymic nude, mouse, brain, intraperitoneal, 10 mg/kg, normal mouse brains, individual mice, n=6, read-out: Unbound QST, brain); ~1.7 nM in data set [1] (athymic nude, mouse, brain, ip, 10 mg/kg, normal brain, 10 mg/kg IP MWF 2 weeks, 2 hours after last dose, read-out: unbound drug concentration in the brain); 26.24 nM and 32.91 nM and 41.935 nM and 27.27 nM and 31.45 nM in data set [1] (normal mouse brains, individual mice, n=6, read-out: Total QST, brain); 2.1 nM and 1.36 nM and 1.57 nM and 2.27 nM and 1.31 nM in data set [1] (normal mouse brains, individual mice, n=6, read-out: Unbound QST, brain). Further, the “Total QST, plasma” value in data set [1] (setting [4]) was 464.014 nM and 281.833 nM and 297.864 nM and 455.378 nM and 301.853 nM and 226.232 nM. Also, the “UNBOUND [QST], Plasma” value in data set [1] (setting [4]) was 117.95 nM and 180.33 nM and 119.53 nM and 89.59 nM and 183.75 nM and 111.61 nM. Further, the “tolerability (mean weights)” value in data set [2] (10 mg/kg IP MWF, alone and in combination with IR, flank tumor study) was “well tolerated”. The “weight of flank tumor mice” value was 29.8 in data set [2] (day 13 post-injection); 29.9 (2×) and 27.3 and 29.1 and 26 (2×) and 31.1 and 29.8 and 28 and 28.9 in data set [2] (day 22 post-injection).
